Test results taken from PMC9674596, “Origin of acetylcholine antagonism in ELIC, a bacterial pentameric ligand-gated ion channel” (Communications Biology, 2022).
“Also recorded” adds a separate entry of the source.

Key:
wild-type ELIC [1] = target: T1, wild-type ELIC (Dickeya chrysanthemi, UniProt P0C7B7, INS163G); test: Two-electrode voltage clamp, whole-cell currents of wild-type ELIC expressed in Xenopus laevis oocytes; format: cell-based, Erwinia chrysanthemi
T1 construct: expressed in transfected cells; host or cells: Xenopus laevis oocytes injected with cRNA from ELIC-pTLN
Method: (§1) Stage V-VI Xenopus laevis oocytes were isolated[72] and deflocculated enzymatically in ND96 buffer without Ca^2+ (96 mM NaCl, 2 mM KCl, 1 mM MgCl2, 2 mM pyruvate, 5 mM HEPES, pH 7.4), but supplemented with 1 mg/mL collagenase B and 1 mg/mL trypsin inhibitor, for 2 h at room temperature under constant stirring. The deflocculation buffer was then gradually removed by washing the oocytes in ND96 buffer (96 mM NaCl, 2 mM KCl, 1 mM MgCl2, 1 mM CaCl2, 2 mM pyruvate, 5 mM HEPES, pH 7.4) for several iterations. The oocytes were then allowed to stir for an additional hour at room temperature under constant stirring with the buffer being periodically replaced until clear. To obtain optimal receptor expression, individually selected and healthy oocytes were injected with 0.2 ng cRNA for wild-type ELIC and 5 ng cRNA for mutants. Subsequently, oocytes were incubated for one day at 16 °C in ND96^+ buffer (96 mM NaCl, 2 mM KCl, 1 mM MgCl2, 1 mM CaCl2, 2 mM pyruvate, and 5 mM HEPES at pH 7.6). After expression, injected oocytes were placed in a RC-1Z oocyte chamber (Harvard Apparatus; Hamden, CT) containing buffer (pH 7.4) composed of 150 mM NaCl, 0.5 mM BaCl2, 10 mM HEPES, and 1 mM dithiothreitol or 1 µM atropine if cysteamine, or ACh, was used in the experiment, respectively. The presence of the reducing agent, dithiothreitol, ensures that the sulfhydryl group of cysteamine remains reduced.
(§2) Once in the oocyte chamber, whole-cell currents were recorded using a two-electrode voltage-clamp apparatus (OC-725C oocyte clamp; Harvard Apparatus), with a buffer flow rate of 5–10 mL min^−1. Currents in response to various additions of cysteamine and/or ACh, were measured with the transmembrane voltage clamped at −60 mV. Dose response curves for each wild-type and mutant ELIC were acquired from at least five oocytes in two different batches.
(§3) For identifying the half maximal effective concentration (EC50) and apparent Hill coefficient (nH) of cysteamine, dose response curves were created by taking the magnitude of each cysteamine-activated peak current (I) and normalizing this value to the maximal peak current in the presence of excess agonist (Imax). The log (base 10) cysteamine concentration in molar was then plotted on the x-axis against the fractional response (I/Imax) on the y-axis. The data was fitted using nonlinear regression with a variable slope sigmoidal dose response (Eq. 1, below) in GraphPad Prism (v.8.0.0).1 y=1/1+10^nH^LogEC50−X
Individual EC50 and Hill coefficients were averaged for each oocyte to derive a mean ± standard deviation. […] […] The log (base 10) ACh concentration was then plotted on the x-axis against the fractional response (I/Io) on the y-axis. Subsequent steps were the same as above for deriving a cysteamine EC50 and Hill coefficient. The individual IC50 and Hill coefficients were averaged for each oocyte to derive a mean ± one standard deviation. Lastly, to identify four normalized response values, cysteamine at the 10% maximal effective concentration (EC10), 20% maximal effective concentration (EC20), EC50 and 90% maximal effective concentration (EC90), was applied in the presence and absence of 25 mM ACh. The cysteamine-activated peak current with 25 mM ACh, was normalized to the cysteamine-activated peak current without ACh.

wild-type ELIC [2] = target: T1, wild-type ELIC; conditions: cited from earlier work
ELIC L240A (L9′A) = target: T2, ELIC L240A (L9′A) (Dickeya chrysanthemi, UniProt P0C7B7, L239A); test: Two-electrode voltage clamp, L240A (L9′A) mutant ELIC expressed in Xenopus laevis oocytes; format: cell-based, Erwinia chrysanthemi
T2 construct: expressed in transfected cells; host or cells: Xenopus laevis oocytes injected with cRNA from ELIC-pTLN
Method: as §1, §2, §3
Individual EC50 and Hill coefficients were averaged for each oocyte to derive a mean ± standard deviation. For identifying a half maximal inhibitory concentration (IC50) and Hill coefficient of ACh, a concentration of cysteamine corresponding to its EC50 was used in the presence of increasing concentrations of ACh. […]

With NCCS [cysteamine] the “Cysteamine concentration corresponding to EC10” value (wild-type ELIC [1]; WT) was 200 µM, the “Cysteamine concentration corresponding to EC20” value (wild-type ELIC [1]; WT) was 300 µM and the “Activation Hill coefficient” value (wild-type ELIC [1]; WT ELIC, agonist activation) was 2.6 ± 0.4. For the same compound, the EC50 (wild-type ELIC [1]; WT ELIC, agonist-activated peak current, −60 mV, mean ± s.d., read-out: Activation EC50) was 600 ± 100 µM, the “Peak current on application of ligand alone” value (wild-type ELIC [1]; WT, ACh 0.5 mM to 50 mM, followed by 5 mM cysteamine) was “robust peak current” and the EC90 (wild-type ELIC [1]; WT, read-out: Cysteamine concentration corresponding to EC90) was 1300 µM. For the same compound, the “Action on ELIC” value (wild-type ELIC [2]) was “agonists”, the “Current on application of ligand alone” value (ELIC L240A (L9′A); L9′A, 30 s applications of ACh 0.5 to 50 mM, then 5 mM cysteamine) was “robust peak current; also recorded: robust activation” and the “Activation Hill coefficient” value (ELIC L240A (L9′A); L240A (L9′A), cysteamine as agonist) was 2.8 ± 0.1. It also gave an EC50 (ELIC L240A (L9′A); L240A (L9′A), cysteamine as agonist, read-out: Activation EC50) of 150 ± 10 µM.
